Consider one compound from patent US7816387B2, “β secretase inhibitor” (Dainippon Sumitomo Pharma Co., Ltd., priority 2005, dated 2010).

For the test, the system named is Human Neuroblastoma IMR-32 Cell. Briefly: Inhibition of production and secretion of Aβ in IMR-32 cells (ELISA of Aβ). It counts as cell-based. The note with it: 24 hours incubation, Aβ in supernatant by ELISA. Here is the method: 1) Incubation of IMR-32 Cell
IMR-32 cells (American Type Culture Collection Inc.) were seeded to 35 mmφPetri dish (FALCON Ltd.) at 37° C. for 2 to 3 days at 1.5×10^5 cells/petri dish. A DMSO solution containing test compound was dissolved in a 0.2% bovine serum albumin (Sigma Inc.)/Dulbecco's modified Eagle medium (Sigma Inc.), and a 1 mL of the mixture was added to the above Petri dish and the mixture was incubated for additional 24 hours. A 0.2% bovine serum albumin/Dulbecco's modified Eagle medium without the test compound was used as a control. The supernatant was collected and centrifuged at 5000 rpm for 5 minutes to precipitate a suspension cell. After centrifugation, the supernatant was used as a measurement sample of Aβ.
(2) Determination by Enzyme-Linked Immunoassay (ELISA) of Aβ
To a maxi sorp 96 well plate (Nunc Inc.) was added 50 μL portions of 4G8 antibody (Sigma Inc.) dissolved in 0.1M carbonate buffer (pH 9.5) and the mixture was allowed to stand at 4° C. overnight. […] After washing three times with PBST, color was developed by TMB substrate kit (Pias Inc.) and the calorimetric method (measured wavelength: 450 nm) was determined by a plate reader (ELx 808, BIO-TEK INSTRUMENTS Inc.).
Background: An ELISA detects its analyte on a solid surface through an enzyme-linked reagent.

Consider `C[C@@H](NC(=O)c1cc(C(=O)N[C@@H](Cc2ccccc2)[C@@H](O)C(=O)Nc2ncc[nH]2)cc(N(C)S(C)(=O)=O)c1)c1ccccc1` [Example 1, N-[(1S,2R)-1-Benzyl-2-hydroxy-3-(1H-imidazol-2-ylamino)-3-oxopropyl]-5-[methyl(methylsulfonyl)amino]-N′-[(1R)-1-phenylethyl]isophthalamide], for which the IC50 worked out at 200 nM.

As usually defined, the IC50 is the concentration that inhibits the measured activity by half.
